Key:
Assay type in all cases: in vivo
[1] = system: Alopecurus myosuroides (ALOMY); experiment: Post-emergence herbicidal activity, glasshouse pot test; details: Alopecurus myosuroides, 312 h, rate 250 g/ha, evaluated after 13 days, glasshouse, read-out: Post-emergence activity ALOMY (100=total damage to plant; 0=no damage to plant)
In short: (§1)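 Herbicide damage scored 0–100 at 13 d. Pre-emergence: spray 1 d after sowing; post-emergence: spray after 8 d growth. Formulation acetone/water 50:50, 0.5% Tween 20, aqueous spray.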

[2] = system: Avena fatua (AVEFA); experiment: as above; details: Avena fatua, 312 h, rate 250 g/ha, evaluated after 13 days, glasshouse, read-out: Post-emergence activity AVEFA (100=total damage to plant; 0=no damage to plant)
In short: as §1

[3] = system: Lolium perenne (LOLPE); experiment: as above; details: Lolium perenne, 312 h, rate 250 g/ha, evaluated after 13 days, glasshouse, read-out: Post-emergence activity LOLPE (100=total damage to plant; 0=no damage to plant)
In short: as §1

[4] = system: Echinochloa crus-galli (ECHCG); experiment: as above; details: Echinochloa crus-galli, 312 h, rate 250 g/ha, evaluated after 13 days, glasshouse, read-out: Post-emergence activity ECHCG (100=total damage to plant; 0=no damage to plant)
In short: as §1

[5] = system: Alopecurus myosuroides (ALOMY); experiment: Pre-emergence herbicidal activity, glasshouse pot test; details: Alopecurus myosuroides, 312 h; Rate 250 g/ha; pre-emergence spray; evaluated after 13 days; read-out: Pre-emergence activity ALOMY (100=total damage to plant; 0=no damage to plant)
In short: as §1

[6] = system: Avena fatua (AVEFA); experiment: as above; details: Avena fatua, 312 h; Rate 250 g/ha; pre-emergence spray; evaluated after 13 days; read-out: Pre-emergence activity AVEFA (100=total damage to plant; 0=no damage to plant)
In short: as §1

[7] = system: Lolium perenne (LOLPE); experiment: as above; details: Lolium perenne, 312 h; Rate 250 g/ha; pre-emergence spray; evaluated after 13 days; read-out: Pre-emergence activity LOLPE (100=total damage to plant; 0=no damage to plant)
In short: as §1

[8] = system: Echinochloa crus-galli (ECHCG); experiment: as above; details: Echinochloa crus-galli, 312 h; Rate 250 g/ha; pre-emergence spray; evaluated after 13 days; read-out: Pre-emergence activity ECHCG (100=total damage to plant; 0=no damage to plant)
In short: as §1

SMILES	pest or weed control at 250 g/ha [1]	pest or weed control at 250 g/ha [2]	pest or weed control at 250 g/ha [3]	pest or weed control at 250 g/ha [4]	pest or weed control at 250 g/ha [5]	pest or weed control at 250 g/ha [6]	pest or weed control at 250 g/ha [7]	pest or weed control at 250 g/ha [8]
CCc1ccc(Oc2ccc(Cl)cc2[N+](=O)[O-])cc1C1=C(O)C(C)(C)OC(C)(C)C1=O [Example A-226]	60%	60%	60%	100%	0%	10%	30%	60%
CCc1ccc(Oc2ccc(Br)cc2Cl)cc1C1=C(O)[C@H]2CC[C@H](C2)C1=O [Example A-244]	60%	70%	80%	90%	20%	0%	70%	90%
CCc1ccc(Oc2ccc(C(F)(F)F)cn2)cc1C1=C(O)CC2(CCOCC2)CC1=O [Example A-267]	100%	100%	100%	100%	100%	100%	100%	100%
CCc1ccc(Oc2ccc(C#N)cc2F)cc1C1=C(O)CC(C)(C)CC1=O [Example A-87]	70%	40%	40%	80%	30%	20%	40%	60%
CCc1ccc(Oc2cccc(F)n2)cc1C1=C(O)C(C)(C)OC(C)(C)C1=O [Example A-43]	0%	0%	20%	70%	10%	0%	10%	90%
CCc1ccc(Oc2ccc(Cl)cc2Cl)cc1C1=C(O)CCCC1=O [Example A-40]	30%	40%	30%	90%	50%	20%	50%	80%
CCc1ccc(Oc2ccc(OC)nn2)cc1C1=C(O)C(C)(C)OC(C)(C)C1=O [Example A-124]	10%	0%	10%	40%	0%	0%	0%	10%
CCc1ccc(Oc2cncc(Cl)n2)cc1C1=C(O)C(C)(C)OC(C)(C)C1=O [Example A-102]	10%	0%	20%	40%	0%	0%	20%	10%
CCc1ccc(Oc2cnc3cc(Cl)ccc3n2)cc1C1=C(O)C(C)(C)OC(C)(C)C1=O [Example A-55]	100%	100%	100%	100%	80%	90%	100%	100%
CCc1ccc(Oc2nc(F)c(Cl)c(OC)c2Cl)cc1C1=C(O)C(C)(C)OC(C)(C)C1=O [Example A-222]	20%	20%	30%	30%	0%	0%	0%	0%
CCc1ccc(Oc2ccc(Cl)cc2Br)cc1C1=C(O)C(C)(C)OC(C)(C)C1=O [Example A-23]	80%	80%	90%	100%	70%	70%	90%	90%
CCc1ccc(Oc2ccc(C#N)cc2)cc1C1=C(O)C(C)(C)OC(C)(C)C1=O [Example A-79]	100%	60%	80%	100%	80%	80%	90%	100%
CCc1ccc(Oc2nc3ccccc3s2)cc1C1=C(O)CC(C)(C)CC1=O [Example A-286]	100%	90%	100%	100%	90%	40%	100%	100%
CCc1ccc(Oc2cnc3ccc(Br)cc3n2)cc1C1=C(O)CC2(CCOCC2)CC1=O [Example A-305]	100%	100%	100%	100%	80%	60%	90%	100%
CCc1ccc(Oc2ccc(F)cc2)cc1C1=C(O)CCCC1=O [Example A-29]	0%	0%	10%	70%	0%	10%	30%	40%
CCc1ccc(Oc2nc3ccc([N+](=O)[O-])cc3s2)cc1C1=C(O)[C@@H]2CC[C@](C)(C1=O)C2(C)C [Example A-325]	50%	30%	40%	100%	60%	20%	90%	100%
CCc1ccc(Oc2ccc(C(F)(F)F)cn2)cc1C1=C(O)[C@H]2CC[C@H](C2)C1=O [Example A-334]	90%	100%	100%	100%	100%	100%	100%	100%
CCc1ccc(Oc2nc3ccc(OC)cc3s2)cc1C1=C(O)[C@H]2CC[C@H](C2)C1=O [Example A-343]	50%	80%	80%	100%	50%	50%	100%	100%
